Test: Supersaturation potential of a triclosan solution (calculated from solubilities)
Format: physicochemical
Conditions: skin pH e.g. pH 5.5; 200ppm triclosan solution at pH 10 as starting composition
Procedure: The supersaturation potential of a solution at pH 10 containing 200ppm triclosan was calculated by dividing the concentration of triclosan in that solution by the concentration of triclosan in the solutions at lower pHs.

SMILES: Oc1cc(Cl)ccc1Oc1ccc(Cl)cc1Cl [triclosan]
- degree of supersaturation achievable at a skin pH: 30 X

Source: patent publication EP0862417B1, “PHARMACEUTICAL COMPOSITION FOR TOPICAL APPLICATION” (Reckitt Benckiser Healthcare (UK) Limited, priority 1995, dated 1997)
